Values of other authors in patent US20160095816A2, “ARTICLE AND METHODS FOR ORAL SELF-ADMINISTRATION OF NICOTINE” (priority 2012, published 2016).

Experiments:
[1] = metabolized in the liver
[2] = cigarette smoking, inhaled; "may be as high as"

CN1CCCC1c1cccnc1 (centres unmarked) [Nicotine, 3-(1-Methyl-2-pyrrolidinyl) pyridine]
half life in the bloodstream [1]: 1 to 2 h | peak of nicotine delivered into the bloodstream through smoking [2]: 30-40 nanograms per milliliter of blood
